Experimental data: patent publication US20210355104A1, “ADENOSINE RECEPTOR BINDING COMPOUNDS” (Nikang Therapeuticsm Inc., priority 2018, published 2021)
“And” between values parts separate entries of the source, which are not always exact repeats. Identical values can stand only once.

Experiments:
Adenosine A2A receptor [1] = target: T1, Adenosine A2A receptor (Homo sapiens, UniProt P29274); experiment: Adenosine A2A receptor competitive binding assay (Tag-lite HTRF); settings: Tag-lite adenosine A2A receptor ligand binding
Procedure, shortened: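 Tag-lite HTRF competition: donor-labelled cells expressing human A2A were mixed with serially diluted compounds (DMSO 0.6% in dilutions) and red fluorescent A2A antagonist ligand (60 nM stock). Incubated 2 h at room temperature before HTRF readout.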

Adenosine A2A receptor [2] = target: T1, Adenosine A2A receptor; experiment: cAMP assay in 293A cells stably expressing the adenosine A2A receptor (CGS21680 stimulation, HTRF); format: cell-based; parameters: expressed in transfected cells; host or cells: 293A cells (Invitrogen, Cat# R705-07) infected with A2A-expressing lentivirus (custom packaged by Biosettia), puromycin selected; settings: 293A-A2AR cells, 0.1% BSA
[3] = 8 nM CGS, read-out: cAMP (nM) 0.1% BSA, 8 nM CGS
[4] = 2 h room temperature, values separated by / are repeat determinations
[5] = 8 nM CGS, values separated by / are repeat determinations, read-out: cAMP (nM) 0.1% BSA, 8 nM CGS
[6] = 1 uM CGS, values separated by / are repeat determinations, read-out: cAMP (nM) 0.1% BSA, 1 uM CGS
[7] = 1 uM CGS, read-out: cAMP (nM) 0.1% BSA, 1 uM CGS

T1 sequence (P29274 whole entry): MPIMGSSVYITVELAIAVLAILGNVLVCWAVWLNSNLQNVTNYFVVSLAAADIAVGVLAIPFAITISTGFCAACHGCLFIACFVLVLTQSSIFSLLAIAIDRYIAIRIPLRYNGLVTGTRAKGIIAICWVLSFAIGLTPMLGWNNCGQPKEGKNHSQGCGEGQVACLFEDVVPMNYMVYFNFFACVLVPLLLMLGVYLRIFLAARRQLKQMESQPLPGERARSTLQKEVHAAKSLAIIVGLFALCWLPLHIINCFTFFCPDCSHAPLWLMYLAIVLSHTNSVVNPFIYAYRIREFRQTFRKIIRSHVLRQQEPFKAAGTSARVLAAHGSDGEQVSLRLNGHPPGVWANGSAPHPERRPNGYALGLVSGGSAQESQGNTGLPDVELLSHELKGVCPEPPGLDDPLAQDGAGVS

| SMILES | IC50 (Adenosine A2A receptor [1]; HTRF) | IC50 (Adenosine A2A receptor [2]; [3]) | IC50 (Adenosine A2A receptor [1]; [4]) | IC50 (Adenosine A2A receptor [2]; [5]) | IC50 (Adenosine A2A receptor [2]; [6]) | IC50 (Adenosine A2A receptor [2]; [7]) |
| --- | --- | --- | --- | --- | --- | --- |
| Cc1cc(-c2c(OCc3nc(S(C)(=O)=O)cn3C(C)C)nc(N)nc2-c2ccc(F)cc2)cc(C(F)F)n1 [Example 211, 5-(2-(difluoromethyl)-6-methylpyridin-4-yl)-4-(4-fluorophenyl)-6-((1-isopropyl-4-(methylsulfonyl)-1H-imidazol-2-yl)methoxy)pyrimidin-2-amine] | 47 nM | 7.3 nM |  |  |  |  |
| Cc1cc(-c2c(OCC(=O)NCc3ccccc3)nc(N)nc2-c2ccc(F)cc2)cc(C(F)F)n1 [Example 84] |  |  | 17 nM | 8.7 nM |  |  |
| COCCNC(=O)COc1nc(N)nc(-c2ccc(F)cc2)c1-c1cc(C)nc(C(F)F)c1 [Example 45, 2-((2-amino-5-(2-(difluoromethyl)-6-methylpyridin-4-yl)-6-(4-fluorophenyl)pyrimidin-4-yl)oxy)-N-(2-methoxyethyl)acetamide] |  |  | 25.7 nM | 66 nM and 8.9 nM |  |  |
| Cc1cc(-c2c(OCCc3ccc(NS(C)(=O)=O)cc3)nc(N)nc2-c2ccc(F)cc2)cc(C(F)F)n1 [Example 69, N-(4-(2-((2-amino-5-(2-(difluoromethyl)-6-methylpyridin-4-yl)-6-(4-fluorophenyl)pyrimidin-4-yl)oxy)ethyl)phenyl)methanesulfonamide] |  |  | 38 nM | 5.8 nM |  |  |
| Cc1cc(-c2c(OCCOc3ccnc(N(C)CCO)c3)nc(N)nc2-c2ccc(F)cc2)cc(C(F)F)n1 [Example 212, 2-((4-(2-((2-amino-5-(2-(difluoromethyl)-6-methylpyridin-4-yl)-6-(4-fluorophenyl)pyrimidin-4-yl)oxy)ethoxy)pyridin-2-yl)(methyl)amino)ethan-1-ol] | 174 nM | 62 nM |  |  |  |  |
| Cc1cc(-c2c(OCCN(C)c3ccc(S(C)(=O)=O)cn3)nc(N)nc2-c2ccc(F)cc2)cc(C(F)F)n1 [Example 157, 5-(2-(difluoromethyl)-6-methylpyridin-4-yl)-4-(4-fluorophenyl)-6-(2-(methyl(5-(methylsulfonyl)pyridin-2-yl)amino)ethoxy)pyrimidin-2-amine] |  |  | 79 nM | 52 nM |  |  |
| CNC(=O)COc1nc(N)nc(-c2ccccc2)c1-c1cc(C)nc(C(F)(F)F)c1 [Example 1, 2-((2-amino-5-(2-methyl-6-(trifluoromethyl)pyridin-4-yl)-6-phenylpyrimidin-4-yl)oxy)-N-methylacetamide] |  |  | 11.1 nM | 40 nM and 17 nM | 4040 nM |  |
| CNC(=O)OCCOc1nc(N)nc(-c2ccccc2)c1-c1cc(C)nc(C(F)(F)F)c1 [Example 144, 2-((2-amino-5-(2-methyl-6-(trifluoromethyl)pyridin-4-yl)-6-phenylpyrimidin-4-yl)oxy)ethyl methylcarbamate] |  |  | 4.5 nM | 4.2 nM |  |  |
| Cc1cc(-c2c(OCc3nccn3C3CC3)nc(N)nc2-c2ccc(F)cc2)cc(C(F)F)n1 [Example 170, 4-((1-cyclopropyl-1H-imidazol-2-yl)methoxy)-5-(2-(difluoromethyl)-6-methylpyridin-4-yl)-6-(4-fluorophenyl)pyrimidin-2-amine] |  |  | 1.1 nM (2×) and 2.9 nM | 1.1 nM and 1.6 nM | 33 nM |  |
| CCN(CC)C(=O)COc1nc(N)nc(-c2ccccc2)c1-c1cc(C)nc(C(C)(F)F)c1 [Example 16, 2-((2-amino-5-(2-(1,1-difluoroethyl)-6-methylpyridin-4-yl)-6-phenylpyrimidin-4-yl)oxy)-N,N-diethylacetamide] |  |  | 1.47 nM | 6.5 nM |  |  |
| Cc1cc(-c2c(OCCc3ccc(OC4CCN(S(C)(=O)=O)C4)cc3)nc(N)nc2-c2ccc(F)cc2)cc(C(F)F)n1 (stereo not shown) [Example 66, 5-(2-(difluoromethyl)-6-methylpyridin-4-yl)-4-(4-fluorophenyl)-6-(4-((1-(methylsulfonyl)pyrrolidin-3-yl)oxy)phenethoxy)pyrimidin-2-amine] |  |  | 95 nM | 337 nM |  |  |
| Cc1cc(-c2c(OCC(=O)Nc3ccccc3)nc(N)nc2-c2ccc(F)cc2)cc(C(F)F)n1 [Example 92, 2-((2-amino-5-(2-(difluoromethyl)-6-methylpyridin-4-yl)-6-(4-fluorophenyl)pyrimidin-4-yl)oxy)-N-phenylacetamide] |  |  | 48 nM | 6.4 nM |  |  |
| Cc1cc(-c2c(OCc3cnnn3C(C)C)nc(N)nc2-c2ccc(F)cc2)cc(C(F)F)n1 [Example 180, 5-(2-(difluoromethyl)-6-methylpyridin-4-yl)-4-(4-fluorophenyl)-6-((1-isopropyl-1H-1,2,3-triazol-5-yl)methoxy)pyrimidin-2-amine] |  |  | 15 nM | 2.5 nM |  |  |
| Cc1cc(-c2c(OCc3ncnn3C(C)C)nc(N)nc2-c2ccc(F)cc2)cc(C(F)F)n1 [Example 179, 5-(2-(difluoromethyl)-6-methylpyridin-4-yl)-4-(4-fluorophenyl)-6-((1-isopropyl-1H-1,2,4-triazol-5-yl)methoxy)pyrimidin-2-amine] |  |  | 0.7 nM and 1 nM | 2.9 nM | 16 nM and 57 nM |  |
| CCN(CC(C)O)C(=O)COc1nc(N)nc(-c2ccc(F)cc2)c1-c1cc(C)nc(C(F)F)c1 (stereo not shown) [Example 198, 2-((2-amino-5-(2-(difluoromethyl)-6-methylpyridin-4-yl)-6-(4-fluorophenyl)pyrimidin-4-yl)oxy)-N-ethyl-N-(2-hydroxypropyl)acetamide] | 14.9 nM | 10 nM |  |  |  |  |
| Cc1cc(-c2c(OCCc3ccc(C(C)(C)O)cc3)nc(N)nc2-c2ccc(F)cc2)cc(C(F)F)n1 [Example 68, 2-(4-(2-((2-amino-5-(2-(difluoromethyl)-6-methylpyridin-4-yl)-6-(4-fluorophenyl)pyrimidin-4-yl)oxy)ethyl)phenyl)propan-2-ol] |  |  | 22 nM | 2.7 nM |  |  |
| Cc1cc(-c2c(OCc3ccn(CC4CC4)n3)nc(N)nc2-c2ccc(F)cc2)cc(C(F)F)n1 [Example 214] | 4.5 nM |  |  |  |  | 327 nM |
| Cc1cc(-c2c(OCc3ncc(C#N)n3C(C)C)nc(N)nc2-c2ccc(F)cc2)cc(C(F)F)n1 [Example 191, 2-(((2-amino-5-(2-(difluoromethyl)-6-methylpyridin-4-yl)-6-(4-fluorophenyl)pyrimidin-4-yl)oxy)methyl)-1-isopropyl-1H-imidazole-5-carbonitrile] |  |  | 39 nM | 12 nM |  |  |
| Cc1cc(-c2c(CNC(=O)N(C)C)nc(N)nc2-c2ccc(F)cc2)cc(C(F)F)n1 [Example 78, 3-((2-amino-5-(2-(difluoromethyl)-6-methylpyridin-4-yl)-6-(4-fluorophenyl)pyrimidin-4-yl)methyl)-1,1-dimethylurea] |  |  | 11 nM | 51 nM |  |  |
| CCn1ccnc1COc1nc(N)nc(-c2ccc(F)cc2)c1-c1cc(C)nc(C(F)F)c1 [Example 105, 5-(2-(difluoromethyl)-6-methylpyridin-4-yl)-4-((1-ethyl-1H-imidazol-2-yl)methoxy)-6-(4-fluorophenyl)pyrimidin-2-amine] |  |  | 0.17 nM and 1 nM | 0.44 nM and 0.38 nM | 10 nM |  |
| CCNC(=O)N(CC)CCOc1nc(N)nc(-c2ccc(F)cc2)c1-c1cc(C)nc(C(F)F)c1 [Example 123, 1-(2-((2-amino-5-(2-(difluoromethyl)-6-methylpyridin-4-yl)-6-(4-fluorophenyl)pyrimidin-4-yl)oxy)ethyl)-1,3-diethylurea] |  |  | 1.2 nM | 0.87 nM and 0.67 nM |  |  |
| CCNC(=O)COc1nc(N)nc(-c2ccc(F)cc2)c1-c1cc(C)nc(C(F)F)c1 [Example 39, 2-((2-amino-5-(2-(difluoromethyl)-6-methylpyridin-4-yl)-6-(4-fluorophenyl)pyrimidin-4-yl)oxy)-N-ethylacetamide] |  |  | 7.2 nM and 6.4 nM | 0.42 nM and 0.57 nM and 2.2 nM |  |  |
| Cc1cc(-c2c(OCCCS(C)(=O)=O)nc(N)nc2-c2ccc(F)cc2)cc(C(F)F)n1 [Example 46, 5-(2-(difluoromethyl)-6-methylpyridin-4-yl)-4-(4-fluorophenyl)-6-(3-(methylsulfonyl)propoxy)pyrimidin-2-amine] |  |  | 5.7 nM and 5.9 nM | 0.45 nM and 0.84 nM and 2.1 nM | 1780 nM and 714 nM |  |
| Cc1cc(-c2c(O)nc(N)nc2-c2ccc(F)cc2)cc(C(F)F)n1 [Example 206, 2-amino-5-(2-(difluoromethyl)-6-methylpyridin-4-yl)-6-(4-fluorophenyl)pyrimidin-4-ol] | 9.2 nM | 10 nM |  |  |  | 4660 nM |
| Cc1cc(-c2c(OCCN(C)c3cccnn3)nc(N)nc2-c2ccc(F)cc2)cc(C(F)F)n1 [Example 150, N-(2-((2-amino-5-(2-(difluoromethyl)-6-methylpyridin-4-yl)-6-(4-fluorophenyl)pyrimidin-4-yl)oxy)ethyl)-N-methylpyridazin-3-amine] |  |  | 2.7 nM and 3.2 nM |  | 98 nM |  |
| CCN(CCOc1nc(N)nc(-c2ccc(F)cc2)c1-c1cc(C)nc(C(F)F)c1)C(=O)NC [Example 124, 1-(2-((2-amino-5-(2-(difluoromethyl)-6-methylpyridin-4-yl)-6-(4-fluorophenyl)pyrimidin-4-yl)oxy)ethyl)-1-ethyl-3-methylurea] |  |  | 1.7 nM | 1.1 nM and 0.5 nM | 535 nM |  |
| Cc1cc(-c2c(OCC(C)(C)O)nc(N)nc2-c2ccc(F)cc2)cc(C(F)F)n1 [Example 62, 1-((2-amino-5-(2-(difluoromethyl)-6-methylpyridin-4-yl)-6-(4-fluorophenyl)pyrimidin-4-yl)oxy)-2-methylpropan-2-ol] |  |  | 15 nM | 15 nM |  |  |
